By melting point is commonly meant the temperature of the solid-liquid transition.

We go through eight compounds from US9376462B2, “Process for preparing delta-7,9(11) steroids from Ganoderma lucidum and analogs thereof” (Indiana University Research and Technology Corporation, priority 2010, dated 2016).

Like-named read-outs stand apart in the source and are kept apart here.

In one series the test system is MDA-MB-231 cells. The series can be described thus: Cell proliferation assay (tetrazolium salt/MTT method), MDA-MB-231. The format is cell-based. As to conditions: Homo sapiens, read-out: IC50, inhibition of cell proliferation. As to the method:
(§1) Cell culture: The human breast cancer cell lines MCF-7 and MDA-MB-231, obtained from ATCC (Manassas, Va.), were cultivated in Dulbecco's modified Eagle's medium (DMEM) containing penicillin (50 U/ml), streptomycin (50 U/ml), and 10% fetal bovine serum (FBS). Media and supplements were from Invitrogen (Grand Island, N.Y.).
(§2) Cell proliferation assay: Ganodermanontriol, 13, 14, and 15 (isomers) were dissolved in DMSO (Sigma; St. Louis, Mo.) at a concentration of 10 mM and stored at 4° C. Dulbecco's phosphate buffered saline (DPBS) was purchased from Cambrex Bio Science Walkersville, Inc. (Walkersville, Md.). Cell proliferation was determined by the tetrazolium salt method (MTT method), according to the manufacturer's instructions (Promega, Madison, Wis.). Briefly, MCF-7 and MDA-MB-231 cells (2.5×10^3/well) were cultured in a 96-well plate and treated with ganodermanontriol, 13, 14 and 15 (0-100 μg/ml) for 24, 48, and 72 hrs. At the end of the incubation period, the cells were harvested and absorption was determined with an ELISA plate reader at 570 nm. Data points represent mean±SD in triplicate determinations repeated at least twice. IC50 values were determined by using SigmaPlot (Systat Software Inc, San Jose, Calif.).
(In general: Formazan colour is commonly taken as a measure of viable cells.)

Series [1] deals with classical pathway (CP) of the complement system. As to conditions: read-out: IC(50), anticomplement activity; cited from earlier work.
A further series deals with human colon cancer cells. As to conditions: in vitro; cited from earlier work.
Series [2] deals with xenograft model of colon cancer. As to conditions: cited from earlier work.
Another series concerns MCF-7 cells. The series can be described thus: Cell proliferation assay (tetrazolium salt/MTT method), MCF-7. The format is cell-based. As to conditions: Homo sapiens, read-out: IC50, inhibition of cell proliferation. How it is done: as §1, §2
In series [3] the target is recombinant HIV-1 protease (Human immunodeficiency virus type 1 group M subtype B, UniProt P04585). As to conditions: cited from earlier work.
For another series, the system named is HIV-1. As to conditions: MT-4 cells; cited from earlier work.
Another series deals with mammalian cells. As to conditions: potentially through inhibition of lanosterol 14α demethylase; cited from earlier work.
Where [4] appears, read: MDA-MB-231 cells, 72 h, 0-100 μM.

Take `C[C@H](CC[C@H](O)[C@](C)(O)CO)[C@H]1CC[C@@]2(C)C3=CCC4C(C)(C)C(=O)CC[C@]4(C)C3=CC[C@]12C` (stereo partly drawn) [compound 1, (10S,13R,14R,17R)-4,4,10,13,14-Pentamethyl-17-((2R,5S,6R)-5,6,7-trihydroxy-6-methylheptan-2-yl)-4,5,6,10,12,13,14,15,16,17-decahydro-1H-cyclopenta[a]phenanthren-3(2H)-one]: the IC50 in the series on MDA-MB-231 cells (MDA-MB-231, 72 h) was 9.7 µM; in series [1], 17.2 µM; in the series on MCF-7 cells (MCF7, 72 h), 5.8 µM. In the series on human colon cancer cells, the “proliferation of human colon cancer cells” value is “suppressed proliferation”. In [2], the tumor growth entry is “inhibited tumor growth”. Also, the “inhibitory activity against recombinant HIV-1 protease” value (shortened to “inhibitory activity”) in series [3] is recorded as “significant inhibitory activity”. Also, the “inhibition of HIV-1-induced cytopathic effect” value with HIV-1 is “inhibited”.

Compound `C/C(=C\CC[C@@H](C)[C@H]1CC[C@@]2(C)C3=CCC4C(C)(C)C(=O)CC[C@]4(C)C3=CC[C@]12C)CO` (stereo partly drawn) [ganoderol A, (10S,13R,14R,17R)-17-((R,E)-7-Hydroxy-6-methylhept-5-en-2-yl)-4,4,10,13,14-pentamethyl-4,5,6,10,12,13,14,15,16,17-decahydro-1H-cyclopenta[a]phenanthren-3(2H)-one] returned a melting point of 75 to 80 °C. For the same compound, in the series with mammalian cells, the hypocholestemic activity result is given as “significant hypocholestemic activity”.

Consider `C[C@H](CC[C@@H](O)[C@@](C)(O)CO)[C@H]1CC[C@@]2(C)C3=CCC4C(C)(C)C(=O)CC[C@]4(C)C3=CC[C@]12C` (stereo partly drawn) [compound 13, (10S,13R,14R,17R)-4,4,10,13,14-Pentamethyl-17-((2R,5R,6S)-5,6,7-trihydroxy-6-methylheptan-2-yl)-4,5,6,10,12,13,14,15,16,17-decahydro-1H-cyclopenta[a]phenanthren-3(2H)-one], for which the IC50 with MDA-MB-231 cells (setting [4]) came out at 33.8 µM; with MCF-7 cells (MCF7 cells, 72 h, 0-100 μM) it was 24.1 µM.

As for ganodermanodiol, in [3], the “inhibitory activity” value was “significant inhibitory activity”.

In the case of `C/C(=C\CC[C@@H](C)[C@H]1CC(=O)[C@@]2(C)C3=C(C(=O)C[C@]12C)[C@@]1(C)CC[C@H](O)C(C)(C)[C@@H]1C[C@@H]3O)C(=O)O` [ganoderic acid β], in series [3], the “inhibitory activity” value is “significant inhibitory activity”.

Consider `C[C@H](CCC=C(CO)CO)[C@H]1CC[C@@]2(C)C3=CC[C@H]4C(C)(C)C(=O)CC[C@]4(C)C3=CC[C@]12C` [ganoderiol F, reference compound], for which, in the series with HIV-1, the “inhibition of HIV-1-induced cytopathic effect” value is reported as “inhibited”.

As for `C[C@H](CC[C@H](O)[C@@](C)(O)CO)[C@H]1CC[C@@]2(C)C3=CCC4C(C)(C)C(=O)CC[C@]4(C)C3=CC[C@]12C` (stereo partly drawn) [compound 14, (10S,13R,14R,17R)-4,4,10,13,14-Pentamethyl-17-((2R,5S,6S)-5,6,7-trihydroxy-6-methylheptan-2-yl)-4,5,6,10,12,13,14,15,16,17-decahydro-1H-cyclopenta[a]phenanthren-3(2H)-one], the IC50 came to 36.7 µM in the series on MDA-MB-231 cells (setting [4]) and 16.3 µM with MCF-7 cells (MCF7 cells, 72 h, 0-100 μM).

For the compound `C[C@H](CC[C@@H](O)[C@](C)(O)CO)[C@H]1CC[C@@]2(C)C3=CCC4C(C)(C)C(=O)CC[C@]4(C)C3=CC[C@]12C` (stereo partly drawn) [compound 15, (10S,13R,14R,17R)-4,4,10,13,14-Pentamethyl-17-((2R,5R,6R)-5,6,7-trihydroxy-6-methylheptan-2-yl)-4,5,6,10,12,13,14,15,16,17-decahydro-1H-cyclopenta[a]phenanthren-3(2H)-one], the IC50 in the series on MDA-MB-231 cells (setting [4]) came out at 11.3 µM; in the series with MCF-7 cells (MCF7 cells, 72 h, 0-100 μM) it was 24.1 µM.
